# Test results: patent publication US9938273B2 (Plexxikon Inc., priority 2015, dated 2018)
# How the values were obtained:
# [1] = system: MOLM-14 D835Y cells, FLT3 ITD and FLT3 D835Y; test: Cell proliferation assay (CellTiter-Glo), MOLM-14 D835Y; type: cell-based; conditions: Homo sapiens, 72 h, 3d-Growth, GMean
# Procedure, shortened: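 MOLM-14 AML cells (endogenous FLT3 ITD, AC220-selected D835Y or F691L variants) or murine Ba/F3 expressing full-length FLT3 ITD/D835Y, without IL-3 for FLT3 dependence, 1×10^4 cells/well. Eight-point 1:3 series from 1 μM final, 0.2% DMSO, 3 days at 37 °C. CellTiter-Glo luminescence (ATP) gave IC50.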
# FLT3-D835Y = biological target: T1, FLT3-D835Y (Homo sapiens, UniProt P36888, D835Y); test: AlphaScreen kinase assay with recombinant enzyme, FLT3-D835Y; type: biochemical; conditions: 8pt, GMean
# T1 construct: purchased Invitrogen PV3967
# T1 sequence (P36888 27-993 D835Y): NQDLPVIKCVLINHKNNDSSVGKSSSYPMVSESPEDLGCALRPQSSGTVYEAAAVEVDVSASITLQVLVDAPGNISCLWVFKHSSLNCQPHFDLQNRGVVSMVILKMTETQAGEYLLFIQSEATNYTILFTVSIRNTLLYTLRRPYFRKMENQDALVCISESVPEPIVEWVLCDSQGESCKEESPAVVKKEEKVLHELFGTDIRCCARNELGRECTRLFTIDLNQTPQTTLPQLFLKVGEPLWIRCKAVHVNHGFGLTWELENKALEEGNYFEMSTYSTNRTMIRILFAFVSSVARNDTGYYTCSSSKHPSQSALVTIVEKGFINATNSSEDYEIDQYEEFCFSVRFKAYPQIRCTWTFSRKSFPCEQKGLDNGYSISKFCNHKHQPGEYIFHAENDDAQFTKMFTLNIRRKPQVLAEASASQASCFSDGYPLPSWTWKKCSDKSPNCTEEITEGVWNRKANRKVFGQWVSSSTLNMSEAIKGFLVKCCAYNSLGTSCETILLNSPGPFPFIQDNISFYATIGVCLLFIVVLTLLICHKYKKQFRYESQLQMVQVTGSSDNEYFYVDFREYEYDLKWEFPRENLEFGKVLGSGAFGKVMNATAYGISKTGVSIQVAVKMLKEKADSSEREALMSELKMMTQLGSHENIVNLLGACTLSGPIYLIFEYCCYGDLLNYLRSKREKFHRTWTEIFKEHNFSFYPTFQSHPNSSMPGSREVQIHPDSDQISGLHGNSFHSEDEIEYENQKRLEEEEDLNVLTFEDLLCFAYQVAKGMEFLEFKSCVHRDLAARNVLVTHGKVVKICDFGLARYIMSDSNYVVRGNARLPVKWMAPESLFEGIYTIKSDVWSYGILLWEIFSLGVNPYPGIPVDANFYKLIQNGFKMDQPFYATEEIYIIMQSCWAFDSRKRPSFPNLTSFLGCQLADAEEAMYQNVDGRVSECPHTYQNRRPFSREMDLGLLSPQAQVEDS
# Procedure, shortened: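 Compounds in DMSO added to enzyme plus biotin-poly(Glu4-Tyr) (30 nM) in assay buffer, then ATP added. Streptavidin donor beads added (20 min, RT), then PY20 acceptor beads (60 min, RT), both at 10 μg/mL final in stop/detection buffer. IC50 conditions: 10 μM FLT3-D835Y/ITD, 100 μM c-KIT.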
IC50 [1] [µM],IC50 (FLT3-D835Y) [µM],SMILES
0.0001 to 10,0.0001 to 10,"NC1CCN(C(=O)c2n[nH]c3ccc(-c4cnc5[nH]c(-c6ccccc6)cc5c4)cc23)CC1 [Compound P-0012, (4-amino-1-piperidyl)-[5-(2-phenyl-1H-pyrrolo[2,3-b]pyridin-5-yl)-1H-indazol-3-yl]methanone]"
0.0001 to 10,0.0001 to 10,"NC1CCN(C(=O)c2cccc(-c3cnc4[nH]c(-c5ccccc5)cc4c3)n2)CC1 [Compound P-0013, (4-amino-1-piperidyl)-[6-(2-phenyl-1H-pyrrolo[2,3-b]pyridin-5-yl)-2-pyridyl]methanone]"
0.0001 to 10,0.0001 to 10,"NC1CCC(NC(=O)c2cccc(-c3cnc4[nH]c(-c5ccccc5)cc4c3)n2)CC1 (centres unmarked) [Compound P-0018, N-(4-aminocyclohexyl)-6-(2-phenyl-1H-pyrrolo[2,3-b]pyridin-5-yl)pyridine-2-carboxamide]"
,0.0001 to 10,"CN1CCC(NC(=O)c2n[nH]c3ccc(-c4cnc5[nH]c(-c6ccccc6)cc5c4)cc23)CC1 [Compound P-0022, N-(1-methyl-4-piperidyl)-5-(2-phenyl-1H-pyrrolo[2,3-b]pyridin-5-yl)-1H-indazole-3-carboxamide]"
,0.0001 to 10,"O=C(c1cccc(-c2cnc3[nH]c(-c4ccccc4)cc3c2)n1)N1CCC(CO)CC1 [Compound P-0023, [4-(hydroxymethyl)-1-piperidyl]-[6-(2-phenyl-1H-pyrrolo[2,3-b]pyridin-5-yl)-2-pyridyl]methanone]"
,0.0001 to 10,"CCOC(=O)C1CCN(C(=O)c2cccc(-c3cnc4[nH]c(-c5ccccc5)cc4c3)n2)CC1 [Compound P-0025, ethyl 1-[6-(2-phenyl-1H-pyrrolo[2,3-b]pyridin-5-yl)pyridine-2-carbonyl]piperidine-4-carboxylate]"
,0.0001 to 10,"NCC1CCN(C(=O)c2cccc(-c3cnc4[nH]c(-c5ccccc5)cc4c3)n2)CC1 [Compound P-0026, [4-(aminomethyl)-1-piperidyl]-[6-(2-phenyl-1H-pyrrolo[2,3-b]pyridin-5-yl)-2-pyridyl]methanone]"
,0.0001 to 10,"CC1CCN(C(=O)c2n[nH]c3ccc(-c4cnc5[nH]c(-c6ccccc6)cc5c4)cc23)CC1 [Compound P-0027, (4-methyl-1-piperidyl)-[5-(2-phenyl-1H-pyrrolo[2,3-b]pyridin-5-yl)-1H-indazol-3-yl]methanone]"
,0.0001 to 10,"CNC1CCN(C(=O)c2n[nH]c3ccc(-c4cnc5[nH]c(-c6ccccc6)cc5c4)cc23)C1 (centres unmarked) [Compound P-0028, [3-(methylamino)pyrrolidin-1-yl]-[5-(2-phenyl-1H-pyrrolo[2,3-b]pyridin-5-yl)-1H-indazol-3-yl]methanone]"
0.0001 to 10,0.0001 to 10,"CNC1CCN(C(=O)c2cccc(-c3cnc4[nH]c(-c5ccccc5)cc4c3)n2)C1 (centres unmarked) [Compound P-0040, [3-(methylamino)pyrrolidin-1-yl]-[6-(2-phenyl-1H-pyrrolo[2,3-b]pyridin-5-yl)-2-pyridyl]methanone]"
0.0001 to 10,0.0001 to 10,"CNC1CCN(C(=O)c2cccc(-c3cnc4[nH]c(-c5cn(C)nc5C)cc4c3)n2)C1 (centres unmarked) [Compound P-0049, [6-[2-(1,3-dimethylpyrazol-4-yl)-1H-pyrrolo[2,3-b]pyridin-5-yl]-2-pyridyl]-[3-(methylamino)pyrrolidin-1-yl]methanone]"
,0.0001 to 10,"c1ccc(-c2cc3cc(-c4cccc(OC5CCNCC5)n4)cnc3[nH]2)cc1 [Compound P-0050, 2-phenyl-5-[6-(4-piperidyloxy)-2-pyridyl]-1H-pyrrolo[2,3-b]pyridine]"
0.0001 to 10,0.0001 to 10,"CNC1CN(C(=O)c2cccc(-c3cnc4[nH]c(-c5ccccc5)cc4c3)n2)C1 [Compound P-0052, [3-(methylamino)azetidin-1-yl]-[6-(2-phenyl-1H-pyrrolo[2,3-b]pyridin-5-yl)-2-pyridyl]methanone]"
,0.0001 to 10,"N[C@H]1CCN(C(=O)c2ncc(-c3cnc4[nH]c(-c5ccccc5)cc4c3)s2)C1 [Compound P-0054, [(3S)-3-aminopyrrolidin-1-yl]-[5-(2-phenyl-1H-pyrrolo[2,3-b]pyridin-5-yl)thiazol-2-yl]methanone]"
0.0001 to 10,0.0001 to 10,"CNC1CCN(C(=O)c2cccc(-c3cnc4[nH]c(-c5ccc(F)cc5)cc4c3)n2)C1 (centres unmarked) [Compound P-0055, [6-[2-(4-fluorophenyl)-1H-pyrrolo[2,3-b]pyridin-5-yl]-2-pyridyl]-[3-(methylamino)pyrrolidin-1-yl]methanone]"
0.0001 to 10,0.0001 to 10,"CN[C@@H]1CCN(C(=O)c2cccc(-c3cnc4[nH]c(-c5ccccc5)cc4c3)n2)C1 [Compound P-0058, [(3R)-3-(methylamino)pyrrolidin-1-yl]-[6-(2-phenyl-1H-pyrrolo[2,3-b]pyridin-5-yl)-2-pyridyl]methanone]"
,0.0001 to 10,"CC1(C#N)CCN(C(=O)c2cccc(-c3cnc4[nH]c(-c5ccccc5)cc4c3)n2)CC1 [Compound P-0094, 4-methyl-1-[6-(2-phenyl-1H-pyrrolo[2,3-b]pyridin-5-yl)pyridine-2-carbonyl]piperidine-4-carbonitrile]"
,0.0001 to 10,"COC1CCN(C(=O)c2cccc(-c3cnc4[nH]c(-c5ccccc5)cc4c3)n2)CC1 [Compound P-0098, (4-methoxy-1-piperidyl)-[6-(2-phenyl-1H-pyrrolo[2,3-b]pyridin-5-yl)-2-pyridyl]methanone]"
,0.0001 to 10,"CS(=O)(=O)NC1CCN(C(=O)c2cccc(-c3cnc4[nH]c(-c5ccccc5)cc4c3)n2)C1 (centres unmarked) [Compound P-0101, N-[1-[6-(2-phenyl-1H-pyrrolo[2,3-b]pyridin-5-yl)pyridine-2-carbonyl]pyrrolidin-3-yl]methanesulfonamide]"
,0.0001 to 10,"O=C(c1cccc(-c2cnc3[nH]c(-c4ccccc4)cc3c2)n1)N1CCC(N2CCOCC2)C1 (centres unmarked) [Compound P-0102, (3-morpholinopyrrolidin-1-yl)-[6-(2-phenyl-1H-pyrrolo[2,3-b]pyridin-5-yl)-2-pyridyl]methanone]"
,0.0001 to 10,"O=C(c1cccc(-c2cnc3[nH]c(-c4ccccc4)cc3c2)n1)N1CCC(C(F)(F)F)C1 (centres unmarked) [Compound P-0103, [6-(2-phenyl-1H-pyrrolo[2,3-b]pyridin-5-yl)-2-pyridyl]-[3-(trifluoromethyl)pyrrolidin-1-yl]methanone]"
,0.0001 to 10,"CN(C)C1CCN(C(=O)c2cccc(-c3cnc4[nH]c(-c5ccccc5)cc4c3)n2)C1 (centres unmarked) [Compound P-0104, [3-(dimethylamino)pyrrolidin-1-yl]-[6-(2-phenyl-1H-pyrrolo[2,3-b]pyridin-5-yl)-2-pyridyl]methanone]"
,0.0001 to 10,"N#CC1CCN(C(=O)c2cccc(-c3cnc4[nH]c(-c5ccc(F)cc5)cc4c3)n2)C1 (centres unmarked) [Compound P-0116, 1-[6-[2-(4-fluorophenyl)-1H-pyrrolo[2,3-b]pyridin-5-yl]pyridine-2-carbonyl]pyrrolidine-3-carbonitrile]"
,0.0001 to 10,"CC(C)(C#N)NC(=O)c1cccc(-c2cnc3[nH]c(-c4cscn4)cc3c2)n1 [Compound P-0167, N-(1-cyano-1-methyl-ethyl)-6-(2-thiazol-4-yl-1H-pyrrolo[2,3-b]pyridin-5-yl)pyridine-2-carboxamide]"
,0.0001 to 10,"CC(C)(C#N)NC(=O)c1cccc(-c2cnc3[nH]c(-c4cnn(C(=O)C5CC5)c4)cc3c2)n1 [Compound P-0184, N-(1-cyano-1-methyl-ethyl)-6-[2-[1-(cyclopropanecarbonyl)pyrazol-4-yl]-1H-pyrrolo[2,3-b]pyridin-5-yl]pyridine-2-carboxamide]"
,0.0001 to 10,"CC(C)(C#N)NC(=O)c1cccc(-c2cnc3[nH]c(-c4cnn(C(F)F)c4)c(Cl)c3c2)n1 [Compound P-0185, 6-[3-chloro-2-[1-(difluoromethyl)pyrazol-4-yl]-1H-pyrrolo[2,3-b]pyridin-5-yl]-N-(1-cyano-1-methyl-ethyl)pyridine-2-carboxamide]"
,0.0001 to 10,"CC(C)(C#N)NC(=O)c1cccc(-c2cnc3[nH]c(C4=CCS(=O)(=O)CC4)cc3c2)n1 [Compound P-0186, N-(1-cyano-1-methyl-ethyl)-6-[2-(1,1-dioxo-3,6-dihydro-2H-thiopyran-4-yl)-1H-pyrrolo[2,3-b]pyridin-5-yl]pyridine-2-carboxamide]"
